# Biological target: T1, Human Factor XIIa (Homo sapiens, UniProt P00748)
# T1 construct: Human Factor XIIa (Enzyme Research Laboratories) was incubated; purchased Enzyme Research Laboratories
# T1 sequence (P00748 373-615 limits assumed): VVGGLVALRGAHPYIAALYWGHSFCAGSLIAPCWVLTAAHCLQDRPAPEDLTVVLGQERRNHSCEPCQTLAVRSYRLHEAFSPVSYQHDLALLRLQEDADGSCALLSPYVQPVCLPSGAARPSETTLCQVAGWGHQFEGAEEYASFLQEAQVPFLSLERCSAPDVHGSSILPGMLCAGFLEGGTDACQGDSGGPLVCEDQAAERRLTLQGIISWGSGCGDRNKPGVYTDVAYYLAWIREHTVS
# T1 sequence (P00748 20-372 partner limits assumed): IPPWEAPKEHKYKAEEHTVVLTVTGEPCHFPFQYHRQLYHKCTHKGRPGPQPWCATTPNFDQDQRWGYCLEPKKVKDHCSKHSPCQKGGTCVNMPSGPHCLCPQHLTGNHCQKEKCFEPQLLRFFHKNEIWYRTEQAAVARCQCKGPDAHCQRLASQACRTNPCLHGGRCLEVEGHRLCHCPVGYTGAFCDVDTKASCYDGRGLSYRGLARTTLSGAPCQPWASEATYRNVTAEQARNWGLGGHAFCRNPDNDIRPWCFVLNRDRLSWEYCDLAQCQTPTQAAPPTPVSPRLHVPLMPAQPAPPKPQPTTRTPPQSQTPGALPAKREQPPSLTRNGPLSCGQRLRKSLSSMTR
# Assay: Determination of FXIIa inhibitory activity in vitro (fluorogenic substrate H-DPro-Phe-Arg-AFC)
# Type: biochemical
# Conditions: 25° C., residual enzyme activity (initial rate)
row,Structure (SMILES),IC50 [µM]
1,CN1CCN(Cc2sc(C(=O)NCc3ccc4c(N)nccc4c3)cc2Cl)CC1 [Example 5.04],10 to 40
2,CC(=O)N1CCN(Cc2sc(C(=O)NCc3ccc4c(N)nccc4c3)cc2Cl)CC1 [Example 5.05],10 to 40
3,CC(C)N1CCN(Cc2sc(C(=O)NCc3ccc4c(N)nccc4c3)cc2Cl)CC1 [Example 5.06],10 to 40
4,CS(=O)(=O)N1CCN(Cc2sc(C(=O)NCc3ccc4c(N)nccc4c3)cc2Cl)CC1 [Example 5.07],10 to 40
5,Nc1nccc2cc(CNC(=O)c3cc(Cl)c(CN4CCC(F)(F)C4)s3)ccc12 [Example 5.08],10 to 40
6,Nc1nccc2cc(CNC(=O)c3cc(Cl)c(CN4Cc5ccccc5C4)s3)ccc12 [Example 5.09],10 to 40
7,Nc1nccc2cc(CNC(=O)c3cc(Cl)c(CN4CCc5ncccc5C4)s3)ccc12 [Example 5.10],3 to 10
8,Nc1nccc2cc(CNC(=O)c3cc(Cl)c(CN4CC(O)C4)s3)ccc12 [Example 5.11],10 to 40
9,Nc1nccc2cc(CNC(=O)c3cc(Cl)c(CN4CCC(CCN5CCCC5=O)CC4)s3)ccc12 [Example 5.13],10 to 40
10,Nc1nccc2cc(CNC(=O)c3cc(Cl)c(CN4CCC5(CC4)OCCO5)s3)ccc12 [Example 5.14],10 to 40
11,Nc1nccc2cc(CNC(=O)c3cc(Cl)c(CN4CCN(c5cnccn5)CC4)s3)ccc12 [Example 5.15],10 to 40
12,CS(=O)(=O)c1ccc(OCc2sc(C(=O)NCc3ccc4c(N)nccc4c3)cc2Cl)cc1 [Example 7.01],10 to 40
13,Cn1cnc2cc(OCc3sc(C(=O)NCc4ccc5c(N)nccc5c4)cc3Cl)ccc21 [Example 7.02],10 to 40
14,"Nc1nccc2cc(CNC(=O)c3cc(Cl)c(COc4ccc(N5CCNCC5)cc4)s3)ccc12 [Example 7.03, N-((1-Aminoisoquinolin-6-yl)methyl)-4-chloro-5-((4-(piperazin-1-yl)phenoxy)methyl)thiophene-2-carboxamide]",1 to 3
15,CC(C)NC(=O)N(C)c1ccc(OCc2sc(C(=O)NCc3ccc4c(N)nccc4c3)cc2Cl)cc1 [Example 7.04],10 to 40
16,Nc1nccc2cc(CNC(=O)c3cc(Cl)c(COc4cccc(N5CCNCC5)c4)s3)ccc12 [Example 7.05],1 to 3
17,Nc1nccc2cc(CNC(=O)c3cc(Cl)c(COCCN4CCOCC4)s3)ccc12 [Example 7.06],3 to 10
18,Nc1nccc2cc(CNC(=O)c3cc(Cl)c(COCCN4CCCCC4)s3)ccc12 [Example 7.07],3 to 10
19,CN1CCC(COCc2sc(C(=O)NCc3ccc4c(N)nccc4c3)cc2Cl)CC1 [Example 7.08],1 to 3

row,Structure (SMILES),IC50 [µM]
1,Nc1nccc2cc(CNC(=O)c3cc(Cl)c(COCCN4CCS(=O)(=O)CC4)s3)ccc12 [Example 7.09],3 to 10
2,Nc1nccc2cc(CNC(=O)c3cc(Cl)c(COCc4ccccn4)s3)ccc12 [Example 7.10],10 to 40
3,CS(=O)(=O)c1cccc(COCc2sc(C(=O)NCc3ccc4c(N)nccc4c3)cc2Cl)c1 [Example 7.11],10 to 40
4,Nc1nccc2cc(CNC(=O)c3cc(Cl)c(COCCC4CCOCC4)s3)ccc12 [Example 7.12],10 to 40
5,Nc1nccc2cc(CNC(=O)c3cc(Cl)c(COCC4CCOCC4)s3)ccc12 [Example 7.13],3 to 10
6,Nc1nccc2cc(CNC(=O)c3cc(Cl)c(COCCN4CCCC4)s3)ccc12 [Example 7.14],3 to 10
7,CN(C)CCOCc1sc(C(=O)NCc2ccc3c(N)nccc3c2)cc1Cl [Example 7.15],3 to 10
8,Nc1nccc2cc(CNC(=O)c3cc(Cl)c(COCCn4ccnc4)s3)ccc12 [Example 7.16],3 to 10
9,CN(CCOCc1sc(C(=O)NCc2ccc3c(N)nccc3c2)cc1Cl)Cc1ccccc1 [Example 7.17],10 to 40
10,Nc1nccc2cc(CNC(=O)c3cc(Cl)c(COCC4CCN(Cc5ccccc5)CC4)s3)ccc12 [Example 7.18],10 to 40
11,Nc1nccc2cc(CNC(=O)c3cc(Cl)c(COCc4cccnc4)s3)ccc12 [Example 7.19],3 to 10
12,Nc1nccc2cc(CNC(=O)c3cc(Cl)c(COCc4ccncc4)s3)ccc12 [Example 7.20],3 to 10
13,Nc1nccc2cc(CNC(=O)c3cc(Cl)c(COCc4cncnc4)s3)ccc12 [Example 7.21],3 to 10
14,CCN(CC)CCCOCc1sc(C(=O)NCc2ccc3c(N)nccc3c2)cc1Cl [Example 7.22],1 to 3
15,Nc1nccc2cc(CNC(=O)c3cc(Cl)c(COCCCN4CCCCC4)s3)ccc12 [Example 7.23],1 to 3
16,Nc1nccc2cc(CNC(=O)c3cc(Cl)c(COCCCc4ccncc4)s3)ccc12 [Example 7.24],10 to 40
17,Nc1nccc2cc(CNC(=O)c3cc(Cl)c(COCCCN4CCOCC4)s3)ccc12 [Example 7.25],3 to 10
18,"CN(C)CCCCOCc1sc(C(=O)NCc2ccc3c(N)nccc3c2)cc1Cl [Example 7.26, N-((1-Aminoisoquinolin-6-yl)methyl)-4-chloro-5-((4-(dimethylamino)butoxy)methyl)thiophene-2-carboxamide]",1 to 3
19,Cn1cc(CCCOCc2sc(C(=O)NCc3ccc4c(N)nccc4c3)cc2Cl)cn1 [Example 7.27],3 to 10

row,Structure (SMILES),IC50 [µM]
1,Nc1nccc2cc(CNC(=O)c3cc(Cl)c(COCCCn4cccn4)s3)ccc12 [Example 7.28],10 to 40
2,Nc1nccc2cc(CNC(=O)c3cc(Cl)c(COCCCc4ccccn4)s3)ccc12 [Example 7.29],10 to 40
3,CN(C)c1ccc(COCc2sc(C(=O)NCc3ccc4c(N)nccc4c3)cc2Cl)cc1 [Example 7.30],10 to 40
4,CN(C)CCCOCc1sc(C(=O)NCc2ccc3c(N)nccc3c2)cc1Cl [Example 7.31],1 to 3
5,Nc1nccc2cc(CNC(=O)c3cc(Cl)cs3)ccc12 [Example 25.01],10 to 40
6,Cc1sc(C(=O)NCc2ccc3c(N)nccc3c2)cc1Br [Example 25.02],3 to 10
7,Nc1nccc2cc(CNC(=O)c3ccc(Cl)s3)ccc12 [Example 25.03],10 to 40
8,Cc1sc(C(=O)NCc2ccc3c(N)nccc3c2)cc1Cl [Example 25.04],3 to 10
9,Nc1nccc2cc(CNC(=O)c3cc(Cl)c(Cc4ccccc4O)s3)ccc12 [Example 25.05],10 to 40
10,COc1ccc(O)c(Cc2sc(C(=O)NCc3ccc4c(N)nccc4c3)cc2Cl)c1 [Example 25.06],10 to 40
11,CN1CCC(CCc2sc(C(=O)NCc3ccc4c(N)nccc4c3)cc2Cl)CC1 [Example 25.11],1 to 3
12,CN1CCC(CCc2csc(C(=O)NCc3ccc4c(N)nccc4c3)c2)CC1 [Example 25.12],3 to 10
13,Nc1nccc2cc(CNC(=O)c3cc(Br)cs3)ccc12 [Example 25.13],3 to 10
14,Nc1nccc2cc(CNC(=O)c3nc(CCC4CCNCC4)cs3)ccc12 [Example 25.14],1 to 3
15,"CN1CCC(CCc2csc(C(=O)NCc3ccc4c(N)nccc4c3)n2)CC1 [Example 25.15, N-((1-Aminoisoquinolin-6-yl)methyl)-4-(2-(1-methylpiperidin-4-yl)ethyl)thiazole-2-carboxamide]",< 1
16,CN1CCC(Nc2csc(C(=O)NCc3ccc4c(N)nccc4c3)c2)CC1 [Example 25.16],10 to 40
17,CN1CCC(CNc2csc(C(=O)NCc3ccc4c(N)nccc4c3)c2)CC1 [Example 25.17],10 to 40
18,"Cc1nc2[nH]ccc2c(C)c1CNC(=O)c1cc(Cl)c(C)s1 [Example 25.101, 4-Chloro-N-((4,6-dimethyl-1H-pyrrolo[2,3-b]pyridin-5-yl)methyl)-5-methylthiophene-2-carboxamide]",10 to 40

# Reference: US20220289727A1, “ENZYME INHIBITORS” (KALVISTA PHARMACEUTICALS LIMITED, priority 2019, published 2022)
